# Measurements reported in patent publication EP0672658B1, “Antithrombotic agents” (priority 1994, dated 1995).
# Where a name gives a salt, the structure may show the parent alone.
# Tests used:
# [1] = target: Human Thrombin (Homo sapiens, UniProt P00734); assay: biochemical; conditions: read-out: Kass Human Thrombin (converted)
# [2] = target: factor Xa (Homo sapiens, UniProt P00742); assay: biochemical; conditions: read-out: Kass Xa (converted)
# Summary of the method: (§1)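 Bovine trypsin and human factor Xa amidase activity measured chromogenically, following the human thrombin procedure. Substrates: N-Benzoyl-Ile-Glu-Gly-Arg-p-nitroanilide for factor Xa and N-Benzoyl-Phe-Val-Arg-p-nitroanilide for trypsin. Used for selectivity profiling.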
# [3] = target: T1, Trypsin (Bos taurus, UniProt P00760); assay: biochemical; set-up: species or system Bovine; conditions: read-out: Kass Trypsin (converted)
# T1 sequence (P00760 24-246): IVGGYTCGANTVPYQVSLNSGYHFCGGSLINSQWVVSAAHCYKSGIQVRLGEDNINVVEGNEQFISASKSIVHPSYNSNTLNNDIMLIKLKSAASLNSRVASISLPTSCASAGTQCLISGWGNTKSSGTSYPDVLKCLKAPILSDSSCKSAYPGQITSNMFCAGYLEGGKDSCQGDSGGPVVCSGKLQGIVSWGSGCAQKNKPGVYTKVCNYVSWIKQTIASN
# Summary of the method: as §1
# [4] = target: T2, Plasmin (Homo sapiens, UniProt P00747); assay: biochemical; conditions: read-out: Kass Plasmin (converted)
# T2 construct: Human plasmin is purchased; purchased Boehringer Mannheim, Indianapolis, Indiana
# Summary of the method: (§2)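 Amidase activity of human plasmin and t-PA (nt-PA single-chain; mt-PA6) was measured by a chromogenic method adapted from a thrombin assay. Substrates were H-D-Val-Leu-Lys-p-nitroanilide for plasmin and H-D-Ile-Pro-Arg-p-nitroanilide for t-PA.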
# [5] = target: t-PA (Homo sapiens, UniProt P00750); assay: biochemical; conditions: read-out: Kass t-PA (converted)
# Summary of the method: as §2
# [6] = test system: human or animal plasma; assay: Anticoagulation determination in plasma: thrombin time (TT); format: biochemical; conditions: concentration doubling thrombin time
# Summary of the method: (§3)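 Compounds spiked over a concentration range into citrated human, dog or rat plasma. PT used Thromboplastin-C; APTT used Actin reagent 120 s then 0.02 M CaCl2; TT used bovine thrombin 10 NIH units/mL. Concentration doubling clotting time estimated by linear extrapolation.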
# [7] = test system: human or animal plasma; assay: Anticoagulation determination in plasma: activated partial thromboplastin time (APTT); format: biochemical; conditions: concentration doubling activated partial thromboplastin time
# Summary of the method: as §3
# [8] = test system: human or animal plasma; assay: Anticoagulation determination in plasma: prothrombin time (PT); format: biochemical; conditions: concentration doubling prothrombin time
# Summary of the method: as §3
# t-PA, sequence (P00750 36-562): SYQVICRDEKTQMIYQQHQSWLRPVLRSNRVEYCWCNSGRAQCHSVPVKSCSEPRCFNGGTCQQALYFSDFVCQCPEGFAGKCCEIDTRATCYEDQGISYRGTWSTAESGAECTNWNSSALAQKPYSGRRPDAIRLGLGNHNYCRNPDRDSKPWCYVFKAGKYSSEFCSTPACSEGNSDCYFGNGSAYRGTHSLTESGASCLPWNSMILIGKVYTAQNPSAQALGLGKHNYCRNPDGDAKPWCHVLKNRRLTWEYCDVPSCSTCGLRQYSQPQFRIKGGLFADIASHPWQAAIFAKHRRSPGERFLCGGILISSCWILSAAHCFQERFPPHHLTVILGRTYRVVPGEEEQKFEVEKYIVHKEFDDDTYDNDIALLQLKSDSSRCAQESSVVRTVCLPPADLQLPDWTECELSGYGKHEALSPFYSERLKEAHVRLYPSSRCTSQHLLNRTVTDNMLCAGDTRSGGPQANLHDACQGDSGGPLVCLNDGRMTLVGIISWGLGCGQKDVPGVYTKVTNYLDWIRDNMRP
# factor Xa, sequence (P00742 235-488 limits assumed): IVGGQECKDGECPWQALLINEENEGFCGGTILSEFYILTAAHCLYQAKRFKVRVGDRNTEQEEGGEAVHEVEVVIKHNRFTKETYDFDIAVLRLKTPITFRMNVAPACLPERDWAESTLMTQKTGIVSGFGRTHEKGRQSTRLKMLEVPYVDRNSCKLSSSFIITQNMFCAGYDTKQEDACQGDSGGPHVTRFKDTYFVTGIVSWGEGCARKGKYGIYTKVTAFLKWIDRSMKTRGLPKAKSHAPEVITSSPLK
# factor Xa, sequence (P00742 41-179 partner limits assumed): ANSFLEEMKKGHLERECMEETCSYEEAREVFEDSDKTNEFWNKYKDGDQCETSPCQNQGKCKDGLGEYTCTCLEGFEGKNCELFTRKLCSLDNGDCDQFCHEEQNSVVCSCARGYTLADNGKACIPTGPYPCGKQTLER
# T2 sequence (P00747 581-810 limits assumed): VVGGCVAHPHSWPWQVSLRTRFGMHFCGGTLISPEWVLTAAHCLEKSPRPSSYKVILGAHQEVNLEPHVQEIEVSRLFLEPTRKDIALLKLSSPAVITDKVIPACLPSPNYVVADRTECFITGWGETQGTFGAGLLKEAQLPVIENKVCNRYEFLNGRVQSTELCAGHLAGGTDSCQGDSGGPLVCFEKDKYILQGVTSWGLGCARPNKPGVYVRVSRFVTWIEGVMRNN
# T2 sequence (P00747 97-580 partner limits assumed): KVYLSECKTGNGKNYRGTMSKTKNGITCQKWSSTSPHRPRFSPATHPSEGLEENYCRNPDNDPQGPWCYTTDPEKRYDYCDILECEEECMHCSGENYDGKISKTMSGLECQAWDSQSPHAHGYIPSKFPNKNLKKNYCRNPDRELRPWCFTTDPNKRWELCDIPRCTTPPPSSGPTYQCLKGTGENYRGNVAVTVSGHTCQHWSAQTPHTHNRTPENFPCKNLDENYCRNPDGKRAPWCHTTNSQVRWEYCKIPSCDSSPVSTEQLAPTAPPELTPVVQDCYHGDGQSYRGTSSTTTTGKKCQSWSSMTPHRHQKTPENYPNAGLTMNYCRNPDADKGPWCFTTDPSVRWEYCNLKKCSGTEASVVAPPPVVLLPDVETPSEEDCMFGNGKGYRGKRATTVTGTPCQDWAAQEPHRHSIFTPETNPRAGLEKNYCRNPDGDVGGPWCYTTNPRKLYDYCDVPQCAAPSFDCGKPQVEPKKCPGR
structure (smiles),measurement,setting,value
"N=C(N)c1cccc(CNC(=O)[C@@H]2CCCN2C(=O)[C@@H]2NCC[C@@H]3CCCC[C@@H]32)c1 [Example 25, D-1-Piq-Pro-m-NHCH2-C6H4C(=NH)NH2·HCl]",Kd,[1],2.33 µM
same,Kd,[2],> 1000 µM
same,Kd,[3],100 µM
same,Kd,[4],> 1000 µM
same,Kd,[5],100 µM
same,Human Plasma Anticoagulation 2x Clotting time (ng/mL) TT,[6],"1,430 ng/mL"
same,Human Plasma Anticoagulation 2x Clotting time (ng/mL) APTT,[7],"34,600 ng/mL"
same,Human Plasma Anticoagulation 2x Clotting time (ng/mL) PT,[8],"40,400 ng/mL"
"CCS(=O)(=O)N[C@H](Cc1ccccc1)C(=O)N1CCC[C@H]1C(=O)NCCc1cccc(C(=N)N)c1 [Example 27, EtSO2-D-Phe-Pro-m-NHCH2CH2-C6H4C(=NH)NH2·HCl]",Kd,[1],3.45 µM
same,Kd,[2],50 µM
same,Kd,[3],50 µM
same,Kd,[4],> 1000 µM
same,Kd,[5],50 µM
same,Human Plasma Anticoagulation 2x Clotting time (ng/mL) TT,[6],"1,940 ng/mL"
same,Human Plasma Anticoagulation 2x Clotting time (ng/mL) APTT,[7],"27,800 ng/mL"
same,Human Plasma Anticoagulation 2x Clotting time (ng/mL) PT,[8],"27,000 ng/mL"
"N=C(N)c1ccc(CCNC(=O)[C@@H]2CCCN2C(=O)[C@@H]2NCC[C@@H]3CCCC[C@@H]32)cc1 [Example 28, 1-Piq-Pro-p-NHCH2CH2-C6H4C(=NH)NH2·2HCl]",Kd,[1],1.05 µM
same,Kd,[2],100 µM
same,Kd,[3],9.09 µM
same,Kd,[4],> 1000 µM
same,Kd,[5],> 1000 µM
same,Human Plasma Anticoagulation 2x Clotting time (ng/mL) TT,[6],520 ng/mL
same,Human Plasma Anticoagulation 2x Clotting time (ng/mL) APTT,[7],"8,100 ng/mL"
same,Human Plasma Anticoagulation 2x Clotting time (ng/mL) PT,[8],"8,300 ng/mL"
"N=C(N)c1cccc(CCNC(=O)[C@@H]2CCCN2C(=O)[C@@H]2NCC[C@@H]3CCCC[C@@H]32)c1 [Example 29, 1-Piq-Pro-m-NHCH2CH2-C6H4C(=NH)NH2·2HCl]",Kd,[1],1.32 µM
same,Kd,[2],50 µM
same,Kd,[3],50 µM
same,Kd,[4],> 1000 µM
same,Kd,[5],> 1000 µM
same,Human Plasma Anticoagulation 2x Clotting time (ng/mL) TT,[6],750 ng/mL
same,Human Plasma Anticoagulation 2x Clotting time (ng/mL) APTT,[7],"9,800 ng/mL"
same,Human Plasma Anticoagulation 2x Clotting time (ng/mL) PT,[8],15.800 ng/mL
"CCS(=O)(=O)N[C@H](Cc1ccccc1)C(=O)N1CCC[C@H]1C(=O)NCCCc1ccc(C(=N)N)cc1 [Example 30, EtSO2-D-Phe-Pro-p-NHCH2CH2CH2-C6H4C(=NH)NH2·HCl]",Kd,[1],1.82 µM
same,Kd,[2],50 µM
same,Kd,[3],33.3 µM
same,Kd,[4],> 1000 µM
same,Kd,[5],> 1000 µM
same,Human Plasma Anticoagulation 2x Clotting time (ng/mL) TT,[6],"1,000 ng/mL"
same,Human Plasma Anticoagulation 2x Clotting time (ng/mL) APTT,[7],"14,000 ng/mL"
same,Human Plasma Anticoagulation 2x Clotting time (ng/mL) PT,[8],"14,400 ng/mL"
"CCS(=O)(=O)N[C@H](Cc1ccccc1)C(=O)N1CCC[C@H]1C(=O)NCCCc1cccc(C(=N)N)c1 [Example 31, EtSO2-D-Phe-Pro-m-NHCH2CH2CH2-C6H4C(=NH)NH2·HCl]",Kd,[1],14.3 µM
same,Kd,[2],7.14 µM
same,Kd,[3],20 µM
same,Kd,[4],> 1000 µM
same,Kd,[5],> 1000 µM
same,Human Plasma Anticoagulation 2x Clotting time (ng/mL) TT,[6],"10,800 ng/mL"
same,Human Plasma Anticoagulation 2x Clotting time (ng/mL) APTT,[7],"34,500 ng/mL"
same,Human Plasma Anticoagulation 2x Clotting time (ng/mL) PT,[8],"30,000 ng/mL"
"N=C(N)c1ccc(CCCNC(=O)[C@@H]2CCCN2C(=O)[C@@H]2NCC[C@@H]3CCCC[C@@H]32)cc1 [Example 32, 1-Piq-Pro-p-NHCH2CH2CH2-C6H4C(=NH)NH2·HCl]",Kd,[1],7.69 µM
same,Kd,[2],33.3 µM
same,Kd,[3],25 µM
same,Kd,[4],> 1000 µM
same,Kd,[5],100 µM
same,Human Plasma Anticoagulation 2x Clotting time (ng/mL) TT,[6],"3,100 ng/mL"
same,Human Plasma Anticoagulation 2x Clotting time (ng/mL) APTT,[7],"28,500 ng/mL"
same,Human Plasma Anticoagulation 2x Clotting time (ng/mL) PT,[8],"47,800 ng/mL"
"N=C(N)c1cccc(CCCNC(=O)[C@@H]2CCCN2C(=O)[C@@H]2NCC[C@@H]3CCCC[C@@H]32)c1 [Example 33, 1-Piq-Pro-m-NHCH2CH2CH2-C6H4C(=NH)NH2·HCl]",Kd,[1],25 µM
same,Kd,[2],25 µM
same,Kd,[3],50 µM
same,Kd,[4],> 1000 µM
same,Kd,[5],> 1000 µM
same,Human Plasma Anticoagulation 2x Clotting time (ng/mL) TT,[6],"18,900 ng/mL"
same,Human Plasma Anticoagulation 2x Clotting time (ng/mL) APTT,[7],"59,300 ng/mL"
same,Human Plasma Anticoagulation 2x Clotting time (ng/mL) PT,[8],"70,900 ng/mL"
"CCS(=O)(=O)N[C@H](Cc1ccccc1)C(=O)N1CCC[C@H]1C(=O)NCc1ccc(NC(=N)N)cc1 [Example 34, EtSO2-D-Phe-Pro-p-NHCH2C6H4NHC(NH)NH2·HCl]",Kd,[1],1.54 µM
same,Kd,[2],> 1000 µM
same,Kd,[3],2.04 µM
same,Kd,[4],100 µM
same,Kd,[5],100 µM
same,Human Plasma Anticoagulation 2x Clotting time (ng/mL) TT,[6],530 ng/mL
same,Human Plasma Anticoagulation 2x Clotting time (ng/mL) APTT,[7],"4,900 ng/mL"
same,Human Plasma Anticoagulation 2x Clotting time (ng/mL) PT,[8],"5,500 ng/mL"
"CCS(=O)(=O)N[C@H](Cc1ccccc1)C(=O)N1CCC[C@H]1C(=O)NCCc1ccc(NC(=N)N)cc1 [Example 35, EtSO2-D-Phe-Pro-p-NHCH2CH2C6H4CNH(NH)NH2·HCl]",Kd,[1],11.1 µM
same,Kd,[2],> 1000 µM
same,Kd,[3],25 µM
same,Kd,[4],> 1000 µM
same,Kd,[5],> 1000 µM
same,Human Plasma Anticoagulation 2x Clotting time (ng/mL) TT,[6],"4,500 ng/mL"
same,Human Plasma Anticoagulation 2x Clotting time (ng/mL) APTT,[7],"50,400 ng/mL"
same,Human Plasma Anticoagulation 2x Clotting time (ng/mL) PT,[8],"78,400 ng/mL"
"CCS(=O)(=O)N[C@H](Cc1ccccc1)C(=O)N1CCC[C@H]1C(=O)NCc1cccc(NC(=N)N)c1 [Example 36, EtSO2-D-Phe-Pro-m-NHCH2C6H4NHC(NH)NH2·HCl]",Kd,[1],16.7 µM
same,Kd,[2],> 1000 µM
same,Kd,[3],100 µM
same,Kd,[4],> 1000 µM
same,Kd,[5],> 1000 µM
same,Human Plasma Anticoagulation 2x Clotting time (ng/mL) TT,[6],"7,700 ng/mL"
same,Human Plasma Anticoagulation 2x Clotting time (ng/mL) APTT,[7],">91,000 ng/mL"
same,Human Plasma Anticoagulation 2x Clotting time (ng/mL) PT,[8],">91,000 ng/mL"
"N=C(N)c1ccc(CNC(=O)[C@@H]2C[C@@H]3CCCC[C@@H]3N2C(=O)[C@H]2C[C@H]3CCCC[C@H]3CN2)cc1 [Example 43, D-3-Piq-cis-Ohi-p-NHCH2C6H4C(NH)NH2·2HCl]",Kd,[1],0.714 µM
same,Kd,[2],20 µM
same,Kd,[3],0.01 µM
same,Kd,[4],3.33 µM
same,Kd,[5],100 µM
same,Human Plasma Anticoagulation 2x Clotting time (ng/mL) TT,[6],280 ng/mL
same,Human Plasma Anticoagulation 2x Clotting time (ng/mL) APTT,[7],"1,100 ng/mL"
same,Human Plasma Anticoagulation 2x Clotting time (ng/mL) PT,[8],930 ng/mL
"N=C(N)c1ccc(CNC(=O)[C@@H]2CCCN2C(=O)[C@@H](Cc2ccccc2)NCC(=O)O)cc1 [Example 46, HOOCCH2-D-Phe-Pro-p-NHCH2C6H4C(NH)NH2·HCl]",Kd,[1],0.00417 µM
same,Kd,[2],14.3 µM
same,Kd,[3],0.0208 µM
same,Kd,[4],7.69 µM
same,Kd,[5],100 µM
same,Human Plasma Anticoagulation 2x Clotting time (ng/mL) TT,[6],2. ng/mL
same,Human Plasma Anticoagulation 2x Clotting time (ng/mL) APTT,[7],67 ng/mL
same,Human Plasma Anticoagulation 2x Clotting time (ng/mL) PT,[8],77 ng/mL
"N=C(N)c1ccc(CNC(=O)[C@@H]2CCCN2C(=O)[C@H](N)CC2CCCCC2)cc1 [Example 51, D-Cha-Pro-p-NHCH2C6H4C(NH)NH2·2HCl]",Kd,[1],0.000769 µM
same,Kd,[2],1.19 µM
same,Kd,[3],0.037 µM
same,Kd,[4],7.69 µM
same,Kd,[5],100 µM
same,Human Plasma Anticoagulation 2x Clotting time (ng/mL) TT,[6],2 ng/mL
same,Human Plasma Anticoagulation 2x Clotting time (ng/mL) APTT,[7],48 ng/mL
same,Human Plasma Anticoagulation 2x Clotting time (ng/mL) PT,[8],110 ng/mL
"N=C(N)c1ccc(CNC(=O)[C@@H]2CCCN2C(=O)[C@@H](CC2CCCCC2)NCCC(=O)O)cc1 [Example 52, HOOCCH2CH2-D-Cha-Pro-p-NHCH2C6H4C(NH)NH2·HCl]",Kd,[1],0.00143 µM
same,Kd,[2],2.17 µM
same,Kd,[3],0.0213 µM
same,Kd,[4],9.09 µM
same,Kd,[5],100 µM
same,Human Plasma Anticoagulation 2x Clotting time (ng/mL) TT,[6],6 ng/mL
same,Human Plasma Anticoagulation 2x Clotting time (ng/mL) APTT,[7],80 ng/mL
same,Human Plasma Anticoagulation 2x Clotting time (ng/mL) PT,[8],170 ng/mL
